Assay results: patent publication US11311512B2, “Lymph directing prodrugs” (priority 2014, dated 2022)

Key:
[1] = for Transport of total TST derivatives in lymph (% of dose): anaesthetised, mesenteric lymph-duct cannulated female SD rats, intraduodenal infusion 0-2 h, cumulative over 8 h; for Fold increase (compared with control group dosed with TU): lymphatic transport of total TST derivatives, female SD rats, intraduodenal infusion
Method: Lipid formulations containing the compound of interest were then administered to the animals, the lymph collected and drug concentrations in the lymph subsequently quantified.
Lipid-based formulations of the compounds of the invention or control compounds were prepared as previously described (Trevaskis, N. L. et al., Pharmaceutical Research, 2005, 22(11), 1863-1870). Briefly, approximately 2 mg of the compound (1 mg in the case of Compound 35 and Compound 1), 40 mg oleic acid and 25 mg Tween 80 were mixed in a glass vial until equilibrated (gentle heat (below 50° C.) may be applied for a short period).
[…] This was to eliminate the potential for the relatively high and variable levels of endogenous testosterone in male rats interfering with the quantification of exogenously dosed testosterone. Rats (240-320 g) were maintained on a standard diet and fasted overnight with free access to water prior to experiments. Anaesthetised rats were placed on a heated pad at 37° C. and cannulas were inserted into the duodenum (for formulation administration and rehydration), mesenteric lymph duct (for lymph collection) and carotid artery (for blood collection) as previously described (Edwards et al. Advanced Drug Delivery Reviews 2001, 50(1), 45-60). Post-surgery, rats were re-hydrated for 0.5 h via intraduodenal infusion of normal saline at 2.8 mL/h. The lipid formulations were infused into the duodenum at 2.8 mL/h for 2 h, after which the infusion was changed to 2.8 mL/h normal saline for the remainder of the experiment. Lymph was continuously collected for 6 to 8 h into pre-weighed Eppendorf tubes containing 10 μL of 1,000 IU/mL heparin. The collection tubes were changed hourly and lymph flow was measured gravimetrically. Aliquots of hourly lymph samples were stored at −80° C. prior to assay.
Drug concentration in lymph is expressed as total drug and includes free drug and drug associated with different glycerides. This is assayed by hydrolysis of lymph (to liberate drug from any re-esterified glycerides) prior to assessment of free drug.
FIG. 1 illustrates the cumulative lymphatic transport of total testosterone related derivatives (% of administered dose) versus time in anaesthetised mesenteric lymph duct cannulated female SD rats following intraduodenal infusion of formulations from 0 to 2 h. Each Formulation contained 2 mg of the exemplified compound or the control, testosterone undecanoate (TU), dispersed in 40 mg oleic acid, 25 mg Tween 80 and 5.6 ml PBS.

[2] = Pharmacokinetic study in rats, testosterone plasma concentrations after oral gavage; conditions: for systemic exposure of parent testosterone (dose-normalised plasma AUC0-24h), fold greater than after Compound 41 or Compound 10: oral administration; for systemic exposure of parent testosterone (dose-normalised plasma AUC0-24h), fold greater than after Compound 41 or Compound 10 / AUC0-24 h fold increase compared with TU group: SD female rats; for AUC0-24 h fold increase compared with TU group / Tmax / AUC0-24 h / Cmax: testosterone in plasma, oral gavage; for AUC0-24 h fold increase compared with TU group: dose-normalized; for Tmax / AUC0-24 h / Cmax: conscious carotid artery cannulated SD female rats; for AUC0-24 h / Cmax: normalized to 2 mg/kg equivalent testosterone dose
Method: In order to assess the oral bioavailability of the compounds of the invention, pharmacokinetic studies were conducted in rats and dogs. […] The rats were then allowed to regain consciousness and fasted overnight prior to the commencement of experiments with free access to water. […] The oral formulation of Compound 2 contained 3 mg of the compound, 20 mg oleic acid and 12.5 mg Tween 80 dispersed in 1 mL PBS. Blood samples were collected from the carotid artery cannula from 5 min prior to administration up to 24 h post-dosing and centrifuged at 5000 rpm for 5 min to separate plasma. […] Plasma samples were stored at −80° C. prior to assay by HPLC-MS-MS. In this case samples were assayed for free drug (i.e. non-glyceride associated drug) and were not hydrolysed prior to assay (as was the case with the lymph samples).
FIG. 12 illustrates dose-normalized testosterone plasma concentrations following oral gavage of formulations to conscious, carotid artery cannulated female SD rats. Formulations contained 1 mg of TU, or 2 mg of compounds of the invention containing testosterone dispersed in 40 mg oleic acid, 25 mg Tween 80 and 2 ml PBS. Doses are normalized to a 2 mg/kg equivalent dose of testosterone. Data are shown as mean±SEM for all groups (n=4 or 3 for each group). The embedded figure is the plot of the dose-normalized plasma AUC0-24h (nmol×h/L) of testosterone in the form of a bar graph.

[3] = test system: porcine pancreatic lipase; assay: In vitro hydrolysis by porcine pancreatic lipase; format: in vitro ADME; conditions: 37° C., simulated intestinal micellar solution pH 6.5, up to 180 min
Method: To provide for higher throughput of experiments, unless otherwise stated, in vitro hydrolysis of TST related compounds was performed via incubation with porcine pancreatic lipase. This provides a more reproducible source of pancreatic enzymes, facilitates enhanced experimental throughput and is also a greater challenge than collected rat enzymes (since enzyme activity in rat intestinal fluid is low). Briefly, pancreatic lipase solution was prepared prior to the hydrolysis experiment by dispersion of 1 g porcine pancreatin in 5 ml of lipolysis buffer and 16.9 μl of 5M NaOH. The suspension was mixed well and centrifuged at 3500 rpm for 15 minutes at 5° C. to provide a supernatant. An amount of 1000 ml of lipolysis buffer was prepared with 0.474 g of tris-maleate (2 mM), 0.206 g of CaCl2.H2O (1.4 mM) and 8.775 g of NaCl (150 mM) adjusted with NaOH to pH 6.5. To assess the potential for prodrug hydrolysis in the intestine, 20 μl of prodrug solution (1 mg/ml dissolved in acetonitrile), 900 μl of simulated intestinal micellar solution [prepared with 0.783 g of NaTDC (3 mM) and 0.291 g of phosphatidyl choline (0.75 mM) in 500 ml lipolysis buffer] and 100 μl of enzyme solution were incubated at 37° C. 20 μl samples of the incubation solution were taken at 0, 5, 10, 15, 30, 60, 90, 120 and 180 minutes post incubation and added to 180 μl of ACN to stop lipolysis. The mixture was vortexed and centrifuged at 5000 rpm for 5 minutes to precipitate proteins prior to analysis. The supernatant was analysed by HPLC-MS for residual compound concentrations, and the potential products of compound hydrolysis were analysed.
On incubation with digestive enzymes the monoglycerides forms of the prodrugs are formed very rapidly. The stability in simulated intestinal conditions is therefore better assessed by the stability of the monoglycerides form that is generated by the initial digestion process. The monoglycerides form must remain intact to be absorbed and re-esterified in the enterocyte prior to entry into the lymphatics. […] This is consistent with the increase in lymphatic transport of Compound 18 when compared to Compound 10, and the high extent of lymphatic transport of Compound 16 in FIG. 4.

[4] = Pharmacokinetic study in greyhound dogs, testosterone plasma concentrations after oral administration; format: in vivo; conditions: for Cmax / Tmax / AUC0-24 h: oral capsules; for Cmax / AUC0-24 h: normalized to 2 mg/kg equivalent testosterone dose
Method: For the dog studies, female greyhound dogs were held in a large animal research facility for at least 5 days prior to the commencement of studies. The dogs were allowed to acclimatise for at least 4 days prior to commencing the study. The dogs were fasted for 12 h up to 30 min prior to drug administration. For the fed state studies (n=4 for TU or Compound 13), dogs received 680 g of standard commercial dog food containing 5% fat min prior to drug administration. In the fasted study (n=1 for Compound 13), the dog remained fasted until after 4 h post-dose. Water was available ad libitum throughout the study for all dogs. On the study day, a 20 gauge intravenous catheter was inserted into a cephalic vein to allow blood sampling. The dogs were free to move around (not restrained) after cannulation. For the fed state studies, Andriol Testocaps (the commercial TU product) or Compound 13 was given to the dogs. Andriol Testocaps were supplied by Merck Sharp & Dohme (Australia) Pty Limited and were formulated as soft gelatin capsule containing a 12.0% (w/w) solution of TU in lauroglycol FCC/castor oil [40:60% (w/w)] with the individual capsule composition being 40 mg of TU, lauroglycol FCC, castor oil, gelatin, glycerol, and sunset yellow (E110). Compound 13 was prepared in a long-chain lipid based self-emulsifying drug delivery system (SEDDS) that consisted of 30.5% w/w soybean oil, 30.5% w/w Maisine 35-1, 31.6% w/w Cremophor EL and 7.4% w/w ethanol. Formulations were filled into hard gelatin capsules. Two capsules of Andriol Testocaps containing 80 mg TU or two capsules of Compound 13 containing a total dose of 90 mg Compound 13 dissolved in 2 g of the SEDDS formulation were administrated to the fed greyhound dog by placing the capsules as far posterior to the pharynx as possible, closing the mouth and rubbing the throat to stimulate swallowing. Subsequently 50 mL of water was administered orally via a syringe. Two capsules of Compound 13 formulation were also administrated to the fasted dogs for fasted state studies. After oral administration, blood samples (approx. 3 mL each) were taken via the cephalic vein cannula from 5 min prior to administration up to 10 hours post-dosing. The patency of the catheters was maintained by flushing with a small volume of heparinised saline (1-2 IU/mL) after each blood sample was withdrawn. Blood samples at 24 h were taken by venepuncture. Plasma was separated by centrifugation and aliquots of each plasma sample were transferred into eppendorf tubes and store at −80° C. prior to analysis by LC-MS-MS.

[5] = greyhound dog, fasted state (n = 1)

## CCCCCCCCCCCCCCCC(=O)OCC(COC(=O)CCCCCCCCCCCCCCC)OC(=O)CCCCC(=O)O[C@H]1CC[C@H]2[C@@H]3CCC4=CC(=O)CC[C@]4(C)[C@H]3CC[C@]12C [Compound 11]
[1]
  Transport of total TST derivatives in lymph (% of dose): 17.0 ± 1.6 % of dose
  Fold increase (compared with control group dosed with TU): 9.0 fold
[2]
  systemic exposure of parent testosterone (dose-normalised plasma AUC0-24h), fold greater than after Compound 41 or Compound 10: 10 fold
  AUC0-24 h fold increase compared with TU group: 12.4 fold
  Tmax: 1.3 ± 0.1 h
  AUC0-24 h: 0.0842 ± 0.0093 µM·h
  Cmax: 69.9 ± 8.2 nM
[3]
  stability of the monoglyceride form during in vitro incubation with porcine pancreatic lipase: not highly stable

## CCCCCCCCCCCCCCCC(=O)OCC(COC(=O)CCCCCCCCCCCCCCC)OC(=O)CCCCCCCCC(=O)O[C@H]1CC[C@H]2[C@@H]3CCC4=CC(=O)CC[C@]4(C)[C@H]3CC[C@]12C [Compound 13]
[2]
  systemic exposure of parent testosterone (dose-normalised plasma AUC0-24h), fold greater than after Compound 41 or Compound 10: 10 fold
  Tmax: 0.9 ± 0.1 h
  AUC0-24 h: 0.1871 ± 0.0358 µM·h
  Cmax: 197 ± 53.4 nM
[4]; greyhound dog, fasted state (n = 1), dose-normalized
  AUC0-24 h fold increase compared with TU group: 7.3 fold
[4]; conscious greyhound dogs, fed state, TU as Andriol Testocaps, Compound 13 in SEDDS
  Cmax: 455 ± 9.4 nM
[4]; [5]
  Tmax: 2.5 h
  AUC0-24 h: 1.0268 µM·h
  Cmax: 386 nM
[4]; greyhound dogs, fed state
  Tmax: 1.8 ± 0.3 h
  AUC0-24 h: 1.1166 ± 0.0324 µM·h
[3]
  stability of the monoglyceride form during in vitro incubation with porcine pancreatic lipase: not highly stable

## CCCCCCCCCCCCCCCC(=O)OCC(COC(=O)CCCCCCCCCCCCCCC)OC(=O)C(C)CCCCCCCC(=O)O[C@H]1CC[C@H]2[C@@H]3CCC4=CC(=O)CC[C@]4(C)[C@H]3CC[C@]12C (stereo partly drawn) [Compound 16]
[1]
  Transport of total TST derivatives in lymph (% of dose): 23.2 ± 2.3 % of dose
  Fold increase (compared with control group dosed with TU): 12.3 fold
[2]
  AUC0-24 h fold increase compared with TU group: 15.8 fold
  Tmax: 1.3 ± 0.1 h
  AUC0-24 h: 0.1076 ± 0.014 µM·h
  Cmax: 77 ± 14.2 nM
[3]
  stability of the monoglyceride form during in vitro incubation with porcine pancreatic lipase: significantly stabilised the monoglyceride intermediates

## CCCCCCCCCCCCCCCC(=O)OCC(COC(=O)CCCCCCCCCCCCCCC)OC(=O)CCCCC(=O)OCO[C@H]1CC[C@H]2[C@@H]3CCC4=CC(=O)CC[C@]4(C)[C@H]3CC[C@]12C [Compound 21, 1,3-Bis(palmitoyloxy)propan-2-yl (((8R,9S,10R,13S,14S,17S)-10,13-dimethyl-3-oxo-2,3,6,7-8,9,10,11,12,13,14-15,16,17-tetradecahydro-1H-cyclopenta[a]phenanthren-17-yl)oxy)methyl adipate]
[2]
  AUC0-24 h fold increase compared with TU group: 44.0 fold
  Tmax: 0.7 ± 0.2 h
  AUC0-24 h: 0.2994 ± 0.1001 µM·h
  Cmax: 232 ± 63.2 nM
[3]
  stability of the monoglyceride form during in vitro incubation with porcine pancreatic lipase: lower than that of Compound 11

## CCCCCCCCCCCCCCCC(=O)OCC(COC(=O)CCCCCCCCCCCCCCC)OC(=O)CC(C)CC(=O)Oc1cc(C)cc(C)c1C(C)(C)CC(=O)O[C@H]1CC[C@H]2[C@@H]3CCC4=CC(=O)CC[C@]4(C)[C@H]3CC[C@]12C (stereo partly drawn) [Compound 25]
[2]
  AUC0-24 h fold increase compared with TU group: 58.5 fold
  Tmax: 0.9 ± 0.1 h
  AUC0-24 h: 0.3992 ± 0.0432 µM·h
  Cmax: 419 ± 63.3 nM
[3]
  stability of the monoglyceride form during in vitro incubation with porcine pancreatic lipase: remarkably stable

## CCCCCCCCCCCCCCCC(=O)OCC(COC(=O)CCCCCCCCCCCCCCC)OC(=O)CC(C)CCCCCCC(=O)Oc1cc(C)cc(C)c1C(C)(C)CC(=O)O[C@H]1CC[C@H]2[C@@H]3CCC4=CC(=O)CC[C@]4(C)[C@H]3CC[C@]12C (stereo partly drawn) [Compound 27]
[2]
  AUC0-24 h fold increase compared with TU group: 106.4 fold
  Tmax: 1.5 ± 0.5 h
  AUC0-24 h: 0.7238 ± 0.0905 µM·h
  Cmax: 428 ± 97.8 nM
[3]
  stability of the monoglyceride form during in vitro incubation with porcine pancreatic lipase: remarkably stable
